Test results: patent publication US10259847B2, “Beta-hairpin peptidomimetics” (POLYPHOR AG, priority 2014, dated 2019)
Like-named read-outs stand apart in the source and are kept apart here. *1 amine or outer side, *2 acyl side, *3 side chain or, on linkers, in order; H or OH if unused. Where a SMILES comes first, the peptide text is derived from it. Bridges are numbered along the chain shown (N, C = ends). [ ]: non-standard residue; d: D form. Tle = CC(C)(C)[C@H](N)C(=O)O; dDab = NCC[C@@H](N)C(=O)O; Orn = NCCC[C@H](N)C(=O)O; Dab = NCC[C@H](N)C(=O)O; Dap = NC[C@H](N)C(=O)O; CO = O=C([*:1])[*:2]

Tests used:
Assay type in all cases: cell-based
[1] = system: Escherichia coli ATCC 25922
Method: (§1) Stock solutions were kept at +4° C., light protected.
(§2) The selective antimicrobial activities of the peptides were determined in 96-well plates (Greiner, polystyrene) by the standard NCCLS broth microdilution method (National Committee for Clinical Laboratory Standards 1993. Methods for dilution antimicrobial susceptibility tests for bacteria that grow aerobically, 3rd ed. Approved standard M7-A6; National Committee for Clinical laboratory standards, Wayne, Pa.) with slight modifications. Inocula of the microorganisms were diluted into Mueller-Hinton II (MH, cation adjusted) broth and compared with a 0.5 McFarland standard to give appr. 10^6 colony forming units (CFU)/mL. Aliquots (90 μl) of inoculate were added to 10 μl of MH broth+P-80 (Polysorbate 80, 0.002% final concentration) containing the peptide in serial two-fold dilutions. The following microorganisms were used to determine antibiotic selectivity of the peptides: Escherichia coli ATCC 25922, Klebsiella pneumoniae ATCC 13883 and Acinetobacter baumannii DSM 30008.

[2] = system: Acinetobacter baumannii DSM 30008
Method: as §1, §2

[3] = system: Klebsiella pneumoniae ATCC 13883
Method: as §1, §2

[4] = system: human red blood cells (hRBC); experiment: Hemolysis of human red blood cells
Method: as §1
Percent hemolysis was calculated as follows: (OD540peptide/OD540H2O)×100%.

[5] = Mueller-Hinton broth II, 0.002% P-80, 18-20 hours at 35° C.

CC(C)C[C@@H]1NC(=O)[C@@H]2CCCN2C(=O)[C@H]2CCCN2C(=O)[C@H](CO)NC(=O)[C@@H]2CCNC(=O)CC[C@H](NC1=O)C(=O)N[C@@H](Cc1ccc(O)cc1)C(=O)N[C@@H](CCN)C(=O)N[C@@H](CCCN)C(=O)N[C@H](CCN)C(=O)N[C@@H](CCN)C(=O)N[C@@H](Cc1c[nH]c3ccccc13)C(=O)N[C@@H](CCN)C(=O)N[C@@H](C(C)(C)C)C(=O)N2 [Example 19, cyclo(-Leu-Glu-Tyr-Dab-Orn-^DDab-Dab-Trp-Dab-tBuGly-Dab-Ser-^DPro-Pro-)] (HELM PEPTIDE1{L.E.Y.[Dab].[Orn].[NCC[C@@H](N[*:1])C(=O)[*:2]].[Dab].W.[Dab].[CC(C)(C)[C@H](N[*:1])C(=O)[*:2]].[Dab].S.[dP].P}$PEPTIDE1,PEPTIDE1,2:R3-11:R3|PEPTIDE1,PEPTIDE1,1:R1-14:R2$$$V2.0)
Escherichia coli ATCC 25922 MIC ([1]; ATCC 25922): 3 mg/L
Acinetobacter baumannii DSM 30008 MIC ([2]; DSM 30008): 3 mg/L
Klebsiella pneumoniae ATCC 13883 MIC ([3]; ATCC 13883): 8 mg/L
Hemolysis at 100 μg/mL ([4]; red cells of human, 1 h, 100): 0%

CC(C)[C@@H]1NC(=O)[C@@H]2CCCN2C(=O)[C@H]2CCCN2C(=O)[C@H](Cc2c[nH]cn2)NC(=O)[C@@H]2CC(=O)NCC[C@H](NC1=O)C(=O)N[C@@H](Cc1ccc(O)cc1)C(=O)N[C@@H](CCN)C(=O)N[C@@H]([C@@H](C)O)C(=O)N[C@@H](CCN)C(=O)N[C@@H](CCN)C(=O)N[C@@H](Cc1c[nH]c3ccccc13)C(=O)N[C@@H](CCN)C(=O)N[C@@H](C(C)(C)C)C(=O)N2 [Example 17, cyclo(-Val-Dab-Tyr-Dab-Thr-Dab-Dab-Trp-Dab-tBuGly-Asp-His-^DPro-Pro-)] (HELM PEPTIDE1{V.[Dab].Y.[Dab].T.[Dab].[Dab].W.[Dab].[CC(C)(C)[C@H](N[*:1])C(=O)[*:2]].D.H.[dP].P}$PEPTIDE1,PEPTIDE1,2:R3-11:R3|PEPTIDE1,PEPTIDE1,1:R1-14:R2$$$V2.0)
Escherichia coli ATCC 25922 MIC ([1]; ATCC 25922): 2 mg/L
Acinetobacter baumannii DSM 30008 MIC ([2]; DSM 30008): 4 mg/L
Klebsiella pneumoniae ATCC 13883 MIC ([3]; ATCC 13883): 2 mg/L
Hemolysis at 100 μg/mL ([4]; red cells of human, 1 h, 100): 1%

CC(C)C[C@@H]1NC(=O)[C@H]2CCCN2C(=O)[C@H](CO)NC(=O)[C@H](C)NC(=O)[C@H](C(C)(C)C)NC(=O)[C@H](CCN)NC(=O)[C@H](Cc2c[nH]c3ccccc23)NC(=O)[C@H](CCN)NC(=O)[C@@H](CCN)NC(=O)[C@H](CCCN)NC(=O)[C@H](CCN)NC(=O)[C@H](Cc2ccc(O)cc2)NC(=O)[C@H](CN)NC(=O)[C@H](Cc2ccccc2)NC1=O [Example 42, cyclo(-Phe-Dap-Tyr-Dab-Orn-^DDab-Dab-Trp-Dab-tBuGly-Ala-Ser-^DPro-Leu-)] (cyclo(AS[dP]LF[Dap]Y[Dab][Orn][dDab][Dab]W[Dab][Tle]))
Escherichia coli ATCC 25922 MIC ([1]; ATCC 25922): 1 mg/L
Acinetobacter baumannii DSM 30008 MIC ([2]; DSM 30008): 4 mg/L
Klebsiella pneumoniae ATCC 13883 MIC ([3]; ATCC 13883): 1 mg/L
Hemolysis at 100 μg/mL ([4]; red cells of human, 1 h, 100): 1%

CC(C)[C@@H]1NC(=O)[C@@H]2CCCN2C(=O)[C@H]2CCCN2C(=O)[C@H]([C@@H](C)O)NC(=O)[C@@H]2CSSC[C@H](NC1=O)C(=O)N[C@@H](Cc1ccc(O)cc1)C(=O)N[C@@H](CCN)C(=O)N[C@@H](CN)C(=O)N[C@@H](CCN)C(=O)N[C@@H](CCN)C(=O)N[C@@H](Cc1c[nH]c3ccccc13)C(=O)N[C@@H](CCN)C(=O)N[C@@H](C(C)(C)C)C(=O)N2 [Example 8, cyclo(-Val-Cys-Tyr-Dab-Dap-Dab-Dab-Trp-Dab-tBuGly-Cys-Thr-^DPro-Pro-)] (HELM PEPTIDE1{V.C.Y.[Dab].[NC[C@H](N[*:1])C(=O)[*:2]].[Dab].[Dab].W.[Dab].[CC(C)(C)[C@H](N[*:1])C(=O)[*:2]].C.T.[dP].P}$PEPTIDE1,PEPTIDE1,2:R3-11:R3|PEPTIDE1,PEPTIDE1,1:R1-14:R2$$$V2.0)
Escherichia coli ATCC 25922 MIC [1, 5]: 1 mg/L
Acinetobacter baumannii DSM 30008 MIC [2, 5]: 2 mg/L
Klebsiella pneumoniae ATCC 13883 MIC [3, 5]: 0.5 mg/L
Hemolysis at 100 μg/mL ([4]; 100 μg/mL, 20% hRBC (v/v), 1 h at 37° C.): 1%

CC(C)C[C@@H]1NC(=O)[C@@H]2CCCN2C(=O)[C@H]2CCCN2C(=O)[C@H](CO)NC(=O)[C@@H]2CCNC(=O)C[C@H](NC1=O)C(=O)N[C@@H](Cc1ccc(O)cc1)C(=O)N[C@@H](CCN)C(=O)N[C@@H](CCCN)C(=O)N[C@@H](CCN)C(=O)N[C@@H](CCN)C(=O)N[C@@H](Cc1c[nH]c3ccccc13)C(=O)N[C@@H](CCN)C(=O)N[C@@H](C(C)(C)C)C(=O)N2 [Example 23, cyclo(-Leu-Asp-Tyr-Dab-Orn-Dab-Dab-Trp-Dab-tBuGly-Dab-Ser-^DPro-Pro-)] (HELM PEPTIDE1{L.D.Y.[Dab].[Orn].[Dab].[Dab].W.[Dab].[CC(C)(C)[C@H](N[*:1])C(=O)[*:2]].[Dab].S.[dP].P}$PEPTIDE1,PEPTIDE1,2:R3-11:R3|PEPTIDE1,PEPTIDE1,1:R1-14:R2$$$V2.0)
Escherichia coli ATCC 25922 MIC ([1]; ATCC 25922): 1 mg/L
Acinetobacter baumannii DSM 30008 MIC ([2]; DSM 30008): 1 mg/L
Klebsiella pneumoniae ATCC 13883 MIC ([3]; ATCC 13883): 0.5 mg/L
Hemolysis at 100 μg/mL ([4]; red cells of human, 1 h, 100): 0%

CC(C)[C@@H]1NC(=O)[C@@H]2CCCN2C(=O)[C@H]2CCCN2C(=O)[C@H](CO)NC(=O)[C@@H]2CNC(=O)NC[C@H](NC1=O)C(=O)N[C@@H](Cc1ccc(O)cc1)C(=O)N[C@@H](CCN)C(=O)N[C@@H](CN)C(=O)N[C@H](CCN)C(=O)N[C@@H](CCN)C(=O)N[C@@H](Cc1c[nH]c3ccccc13)C(=O)N[C@@H](CCN)C(=O)N[C@@H](C(C)(C)C)C(=O)N2 [Example 40, cyclo(-Val-Dap-Tyr-Dab-Dap-^DDab-Dab-Trp-Dab-tBuGly-Dap-Ser-^DPro-Pro-)] (cyclo(V[Dap]Y[Dab][Dap][dDab][Dab]W[Dab][Tle][Dap]S[dP]P); linker 2-11 via CO)
Escherichia coli ATCC 25922 MIC ([1]; ATCC 25922): 0.25 mg/L
Acinetobacter baumannii DSM 30008 MIC ([2]; DSM 30008): 1 mg/L
Klebsiella pneumoniae ATCC 13883 MIC ([3]; ATCC 13883): 0.25 mg/L
Hemolysis at 100 μg/mL ([4]; red cells of human, 1 h, 100): 2%

CC(C)C[C@@H]1NC(=O)[C@@H]2CCCN2C(=O)[C@H]2CCCN2C(=O)[C@H](CO)NC(=O)[C@@H]2CC(=O)NCCCC[C@H](NC1=O)C(=O)N[C@@H](Cc1ccc(O)cc1)C(=O)N[C@@H](CCN)C(=O)N[C@@H](CCCN)C(=O)N[C@@H](CCN)C(=O)N[C@@H](CCN)C(=O)N[C@@H](Cc1c[nH]c3ccccc13)C(=O)N[C@@H](CCN)C(=O)N[C@@H](C(C)(C)C)C(=O)N2 [Example 33, cyclo(-Leu-Lys-Tyr-Dab-Orn-Dab-Dab-Trp-Dab-tBuGly-Asp-Ser-^DPro-Pro-)] (HELM PEPTIDE1{L.K.Y.[Dab].[Orn].[Dab].[Dab].W.[Dab].[CC(C)(C)[C@H](N[*:1])C(=O)[*:2]].D.S.[dP].P}$PEPTIDE1,PEPTIDE1,2:R3-11:R3|PEPTIDE1,PEPTIDE1,1:R1-14:R2$$$V2.0)
Escherichia coli ATCC 25922 MIC ([1]; ATCC 25922): 1 mg/L
Acinetobacter baumannii DSM 30008 MIC ([2]; DSM 30008): 1 mg/L
Klebsiella pneumoniae ATCC 13883 MIC ([3]; ATCC 13883): 4 mg/L
Hemolysis at 100 μg/mL ([4]; red cells of human, 1 h, 100): 1%

CC(C)C[C@@H]1NC(=O)[C@H](CCCCN)NC(=O)[C@H]2CCCN2C(=O)[C@H](C(C)C)NC(=O)[C@@H]2CSSC[C@H](NC1=O)C(=O)N[C@@H](Cc1ccc(O)cc1)C(=O)N[C@@H](C)C(=O)N[C@@H](CCCN)C(=O)N[C@H](CCN)C(=O)N[C@@H](CCN)C(=O)N[C@@H](Cc1c[nH]c3ccccc13)C(=O)N[C@@H](C)C(=O)N[C@@H](C(C)C)C(=O)N2 [Example 3, cyclo(-Leu-Cys-Tyr-Ala-Orn-^DDab-Dab-Trp-Ala-Val-Cys-Val-^DPro-Lys-)] (HELM PEPTIDE1{A.[Orn].[NCC[C@@H](N[*:1])C(=O)[*:2]].[Dab].W.A.V.C.V.[dP].K.L.C.Y}$PEPTIDE1,PEPTIDE1,8:R3-13:R3|PEPTIDE1,PEPTIDE1,1:R1-14:R2$$$V2.0)
Escherichia coli ATCC 25922 MIC ([1]; ATCC 25922): 2 mg/L
Acinetobacter baumannii DSM 30008 MIC ([2]; DSM 30008): 1 mg/L
Klebsiella pneumoniae ATCC 13883 MIC ([3]; ATCC 13883): 4 mg/L
Hemolysis at 100 μg/mL ([4]; red cells of human, 1 h, 100): 3.5%

CC(C)C[C@@H]1NC(=O)[C@@H]2CCCN2C(=O)[C@H]2CCCN2C(=O)[C@H](CO)NC(=O)[C@@H]2CC(=O)NCCCC[C@H](NC1=O)C(=O)N[C@@H](Cc1ccc(O)cc1)C(=O)N[C@@H](CCN)C(=O)N[C@@H](CCCN)C(=O)N[C@H](CCN)C(=O)N[C@@H](CCN)C(=O)N[C@@H](Cc1c[nH]c3ccccc13)C(=O)N[C@@H](CCN)C(=O)N[C@@H](C(C)(C)C)C(=O)N2 [Example 35, cyclo(-Leu-Lys-Tyr-Dab-Orn-^DDab-Dab-Trp-Dab-tBuGly-Asp-Ser-^DPro-Pro-)] (HELM PEPTIDE1{L.K.Y.[Dab].[Orn].[NCC[C@@H](N[*:1])C(=O)[*:2]].[Dab].W.[Dab].[CC(C)(C)[C@H](N[*:1])C(=O)[*:2]].D.S.[dP].P}$PEPTIDE1,PEPTIDE1,2:R3-11:R3|PEPTIDE1,PEPTIDE1,1:R1-14:R2$$$V2.0)
Escherichia coli ATCC 25922 MIC ([1]; ATCC 25922): 0.5 mg/L
Acinetobacter baumannii DSM 30008 MIC ([2]; DSM 30008): 1 mg/L
Klebsiella pneumoniae ATCC 13883 MIC ([3]; ATCC 13883): 2 mg/L
Hemolysis at 100 μg/mL ([4]; red cells of human, 1 h, 100): 0%
